This is an account of results in ChEMBL document CHEMBL3352532, “Microwave assisted synthesis and docking study of N-(2-oxo-2-(4-oxo-2-substituted thiazolidin-3ylamino)ethyl)benzamide derivatives as anticonvulsant agents” (Bioorg Med Chem Lett, 2014).

The subject of data set [1] is Mus musculus. The data set is described as follows: Anticonvulsant activity in ip dosed Swiss CF1 mouse measured after 0.5 hrs by scPTZ test. In kind it is functional.
Data set [2] has as its system Mus musculus. The data set is described as follows: Behavioral activity in Swiss CF1 mouse assessed as activity score at 100 mg/kg, ip measured after 4 hrs post dose by actophotometry. Details: dose 100 mg/kg, route intraperitoneal. Particulars: in vivo. In kind it is organism-based.
Data set [3] has as its system Mus musculus. The data set is described as follows: Behavioral activity in Swiss CF1 mouse assessed as activity score at 100 mg/kg, ip measured after 0.5 hrs post dose by actophotometry. In kind it is organism-based. Details: dose 100 mg/kg, route intraperitoneal. Particulars: in vivo.
For data set [4], the system named is Mus musculus. The data set is described as follows: Anticonvulsant activity in ip dosed Swiss CF1 mouse measured after 4 hrs by scPTZ test. In kind it is functional.
Data set [5] in a line: Lipophilicity, log P of the compound by UV spectroscopy. Particulars: octanol/water. In kind it is physicochemical.
The test system of data set [6] is Mus musculus. The data set is described as follows: Anticonvulsant activity in ip dosed Swiss CF1 mouse measured after 0.5 hrs by MES test. In kind it is functional.
Data set [7] concerns Mus musculus. The data set is described as follows: Anticonvulsant activity in ip dosed Swiss CF1 mouse measured after 4 hrs by MES test. In kind it is functional.
For data set [8], the system named is Mus musculus. In words: Hepatotoxicity in Swiss CF1 mouse assessed as induction of fatty changes and inflammations at 300 mg/kg, ip. Details: dose 300 mg/kg, route intraperitoneal. The conditions noted are these: in vivo. In kind it is toxicity, organism-based.
Data set [9] can be described thus: Neurotoxicity in ip dosed Swiss CF1 mouse assessed as induction of motor impairment measured after 4 hrs by rotorod test. In kind it is toxicity, organism-based. The conditions noted are these: in vivo, read-out: MTD50.
A short description of data set [10]: Neurotoxicity in ip dosed Swiss CF1 mouse assessed as induction of motor impairment measured after 0.5 hrs by rotorod test. In kind it is toxicity, organism-based. The conditions noted are these: in vivo, read-out: MTD50. For orientation: In the rotarod test animals must keep their balance on a rotating rod.
In data set [11] the test system is Mus musculus. In words: Hepatotoxicity in Swiss CF1 mouse assessed as induction of inflammation and necrosis at 300 mg/kg, ip. In kind it is toxicity, organism-based. Details: dose 300 mg/kg, route intraperitoneal. The conditions noted are these: in vivo.
The test system of data set [12] is Mus musculus. The data set is described as follows: Hepatotoxicity in Swiss CF1 mouse assessed as induction of necrosis and fatty changes at 300 mg/kg, ip. In kind it is toxicity, organism-based. Details: dose 300 mg/kg, route intraperitoneal. Particulars: in vivo.

Activity calls are given as the source filed them. The calls are words filed in the database; no cut-off is given here.

By logP is commonly meant the decadic logarithm of the partition coefficient of the neutral form, usually between octanol and water. Lower therefore signals a more hydrophilic compound. On to `O=C(CNC(=O)c1ccccc1)NN1C(=O)CSC1c1ccc(O)cc1` (stereo not given), for which the MED50 result in the data set with Mus musculus [1] and in the data set on Mus musculus [4] was “inactive” in each case. Also, the values for the Activity in the data set with Mus musculus [2] and in the data set on Mus musculus [3] were 99.6 and 38.2, respectively. For the same compound, in [5], the logP stood at 1.75. The MED50 worked out at 30 mg/kg in the data set with Mus musculus [6] and 100 mg/kg with Mus musculus [7].
As to `COc1ccc(C2SCC(=O)N2NC(=O)CNC(=O)c2ccccc2)cc1OC` (stereo not given), the MED50 stood at 100 mg/kg in the data set on Mus musculus [1], 300 mg/kg in the data set on Mus musculus [4], 30 mg/kg with Mus musculus [6] and 30 mg/kg in the data set on Mus musculus [7]. For the same compound, the results for the Activity with Mus musculus [2], in the data set with Mus musculus [3] and in the data set with Mus musculus [8] were 88.6, 42 and “Non-toxic”, respectively. For the same compound, the logP in [5] was determined as 1.85.
As to `COc1ccc(C2SCC(=O)N2NC(=O)CNC(=O)c2ccccc2)cc1` (stereo not given), the MED50 with Mus musculus [1] came out at 100 mg/kg; with Mus musculus [6] it was 300 mg/kg. For the same compound, the Activity with Mus musculus [2] came to 80.2; in the data set with Mus musculus [3], 77.8. The TD50 at 4 h in data set [9] is 300 mg/kg. Also, the MED50 entry with Mus musculus [4] and in the data set on Mus musculus [7] was “inactive” each time. This compound had a logP in [5] of 1.85. For the same compound, the TD50 at 0.5 h in [10] worked out at 300 mg/kg.
`O=C(CNC(=O)c1ccccc1)NN1C(=O)CSC1c1ccccc1` (stereo not given): the MED50 with Mus musculus [1] amounted to 100 mg/kg; in the data set with Mus musculus [4], 300 mg/kg; in the data set with Mus musculus [6] it was 300 mg/kg; with Mus musculus [7] it was 300 mg/kg. The figures for the Activity result in the data set with Mus musculus [11], with Mus musculus [2] and in the data set with Mus musculus [3] were “Toxic”, 94.8 and 74, respectively. For the same compound, the TD50 at 4 h in [9] is 300 mg/kg. Further, the logP in [5] came out at 1.95. In [10], the TD50 at 0.5 h was found to be 100 mg/kg.
`O=C(CNC(=O)c1ccccc1)NN1C(=O)CSC1c1ccc(F)cc1` (stereo not given): the MED50 result in the data set on Mus musculus [1], in the data set with Mus musculus [4], with Mus musculus [6] and with Mus musculus [7] was “inactive” throughout. The results for the Activity with Mus musculus [2] and with Mus musculus [3] were 94 and 64.6, respectively. Besides, the TD50 at 4 h in data set [9] stood at 300 mg/kg. Besides, the logP in [5] was found to be 2.1.
As for `O=C(CNC(=O)c1ccccc1)NN1C(=O)CSC1c1ccccc1Cl` (stereo not given), the MED50 entry in the data set on Mus musculus [1] and with Mus musculus [4] was “inactive” in each case. Besides, the results for the Activity with Mus musculus [2] and in the data set on Mus musculus [3] were 110.8 and 108.8, respectively. Besides, the TD50 at 4 h in data set [9] worked out at 100 mg/kg. The same compound displayed a logP in data set [5] of 2.3. Moreover, the MED50 in the data set with Mus musculus [6] was found to be 100 mg/kg; in the data set on Mus musculus [7] it was 300 mg/kg. Moreover, the TD50 at 0.5 h in data set [10] came out at 100 mg/kg.
Take `O=C(CNC(=O)c1ccccc1)NN1C(=O)CSC1c1cccc(Cl)c1` (stereo not given): the MED50 result with Mus musculus [1], in the data set on Mus musculus [4] and with Mus musculus [7] was “inactive” each time. For the same compound, the Activity is given as 108.2 in the data set with Mus musculus [2] and 102.6 with Mus musculus [3]. Besides, the TD50 at 4 h in data set [9] was determined as 30 mg/kg. In addition, in data set [5], the logP was found to be 2.8. In the data set with Mus musculus [6], this compound showed an MED50 of 300 mg/kg. For the same compound, the TD50 at 0.5 h in data set [10] worked out at 30 mg/kg.
With `CCCC(CCC)C(=O)[O-].[Na+]` [VALPROATE SODIUM], the MED50 in the data set on Mus musculus [1] stood at 300 mg/kg. For the same compound, the MED50 result in the data set on Mus musculus [4] is “inactive”.
Turning to `O=C1NC(=O)C(c2ccccc2)(c2ccccc2)N1` [PHENYTOIN], in the data set on Mus musculus [12], the Activity result was “Toxic”. In addition, the MED50 in the data set on Mus musculus [6] and in the data set on Mus musculus [7] was 30 mg/kg in each case.
Turning to `O=C(CNC(=O)c1ccccc1)NN1C(=O)CSC1c1c[nH]c2ccccc12` (stereo not given), the MED50 entry with Mus musculus [1], in the data set on Mus musculus [4] and in the data set with Mus musculus [7] was “inactive” in each case. Further, the results for the Activity in the data set with Mus musculus [2] and in the data set with Mus musculus [3] were 120 and 102.6, respectively. In [9], the TD50 at 4 h was 100 mg/kg. The compound further came in with a logP in data set [5] of 1.7. In the data set on Mus musculus [6], this compound registered an MED50 of 300 mg/kg. Further, in data set [10], the TD50 at 0.5 h was found to be 300 mg/kg.
Take `COc1cc(C2SCC(=O)N2NC(=O)CNC(=O)c2ccccc2)cc(OC)c1OC` (stereo not given): the MED50 in the data set with Mus musculus [1] is 300 mg/kg; in the data set with Mus musculus [4], 300 mg/kg; in the data set on Mus musculus [6] it was 100 mg/kg; with Mus musculus [7] it was 300 mg/kg. Further, the figures for the Activity with Mus musculus [2] and with Mus musculus [3] were 101 and 92.6, respectively. The TD50 at 4 h in data set [9] is 100 mg/kg. In addition, the logP in data set [5] was 1.65. For the same compound, in data set [10], the TD50 at 0.5 h worked out at 100 mg/kg.
With `O=C(CNC(=O)c1ccccc1)NN1C(=O)CSC1c1ccc(Cl)cc1` (stereo not given), the MED50 in the data set on Mus musculus [1] stood at 300 mg/kg; in the data set on Mus musculus [6], 100 mg/kg; in the data set on Mus musculus [7], 100 mg/kg. Further, the Activity is 71.6 in the data set on Mus musculus [2] and 103.6 in the data set on Mus musculus [3]. Further, the MED50 result with Mus musculus [4] is “inactive”. Besides, the logP in [5] was 2.87.
